Reference: publication PMC4832229 (Scientific Reports, 2016)
Where two headings read alike, the source gives them in different places.

Key:
[1] = target: T1, S1P2 (Homo sapiens, UniProt O95136); experiment: TGFα-shedding assay, S1P2; assay type: cell-based
T1 construct: expressed in transfected cells; host or cells: HEK293
Experimental: (§1) The TGFα-shedding assay was performed essentially as described. Briefly, HEK293 cells were co-transfected with the indicated receptor expression construct and TGFα-alkaline phosphatase using Lipofectamine 2000 reagent (cat #11668019, Thermo Fisher), collected by trypsinization, washed with phosphate-buffered saline, and seeded into 96-well plates in Hank’s Balanced Saline Solution (HBSS). To improve assay sensitivity, S1P1 and S1P2 cells were co-transfected with Gαq/i1 chimeric protein, and S1P4 and S1P5 were co-transfected with Gαq/16, as previously described. Cells were stimulated with ligand for 1 hour, then alkaline phosphatase activity was detected in cells and in the supernatant. Receptor activity (% shedding) was defined as alkaline phosphatase activity of the supernatant/total alkaline phosphatase activity (cells + supernatant). Data processing and statistical analyses were performed with GraphPad Prism 6.

[2] = target: T2, S1P1 (Homo sapiens, UniProt P21453); experiment: TGFα-shedding assay, S1P1; assay type: cell-based; conditions: for EC50: HEK293 cells, ligand 1 hour
T2 construct: expressed in transfected cells; host or cells: HEK293
T2 sequence (P21453 whole entry, species assumed): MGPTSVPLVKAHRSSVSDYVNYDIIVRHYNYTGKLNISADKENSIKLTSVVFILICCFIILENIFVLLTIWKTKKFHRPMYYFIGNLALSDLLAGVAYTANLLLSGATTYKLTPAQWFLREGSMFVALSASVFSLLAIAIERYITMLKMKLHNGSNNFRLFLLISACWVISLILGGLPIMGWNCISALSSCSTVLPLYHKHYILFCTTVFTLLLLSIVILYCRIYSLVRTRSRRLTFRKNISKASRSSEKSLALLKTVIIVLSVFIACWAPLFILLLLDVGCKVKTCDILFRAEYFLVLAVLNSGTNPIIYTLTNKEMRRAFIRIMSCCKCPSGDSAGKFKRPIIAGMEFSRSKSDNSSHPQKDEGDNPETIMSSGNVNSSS
Experimental: as §1

[3] = target: T3, S1P2-EGFP (Homo sapiens, UniProt O95136); experiment: Receptor internalization assay, S1P2-EGFP; assay type: cell-based; conditions: 1 μM ligand
T3 construct: expressed in transfected cells
T3 sequence (O95136 whole entry): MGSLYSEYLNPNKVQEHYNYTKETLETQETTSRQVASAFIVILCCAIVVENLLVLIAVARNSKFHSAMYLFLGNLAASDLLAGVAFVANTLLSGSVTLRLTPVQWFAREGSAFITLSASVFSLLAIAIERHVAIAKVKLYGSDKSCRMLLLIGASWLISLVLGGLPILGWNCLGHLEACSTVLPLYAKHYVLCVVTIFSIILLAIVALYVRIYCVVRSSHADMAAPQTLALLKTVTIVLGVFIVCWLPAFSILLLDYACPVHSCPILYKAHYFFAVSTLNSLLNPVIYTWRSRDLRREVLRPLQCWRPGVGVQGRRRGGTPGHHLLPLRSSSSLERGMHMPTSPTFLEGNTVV

[4] = target: T4, S1P5 (Homo sapiens, UniProt Q9H228); experiment: TGFα-shedding assay, S1P5; assay type: cell-based
T4 construct: expressed in transfected cells; host or cells: HEK293
T4 sequence (Q9H228 whole entry, species assumed): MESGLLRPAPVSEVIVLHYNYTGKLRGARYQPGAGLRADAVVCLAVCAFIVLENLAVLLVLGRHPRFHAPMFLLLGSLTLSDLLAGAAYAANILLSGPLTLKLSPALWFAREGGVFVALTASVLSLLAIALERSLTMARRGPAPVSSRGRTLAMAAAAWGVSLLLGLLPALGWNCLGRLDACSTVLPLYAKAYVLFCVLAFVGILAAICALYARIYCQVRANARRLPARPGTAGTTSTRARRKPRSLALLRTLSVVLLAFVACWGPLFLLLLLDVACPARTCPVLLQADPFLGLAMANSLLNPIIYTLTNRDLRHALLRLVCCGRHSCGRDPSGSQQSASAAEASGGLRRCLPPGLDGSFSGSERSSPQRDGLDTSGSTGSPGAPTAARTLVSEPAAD
Experimental: as §1

[5] = target: T5, S1P4 (Homo sapiens, UniProt O95977); experiment: TGFα-shedding assay, S1P4; assay type: cell-based; conditions: for EC50: HEK293 cells, ligand 1 hour
T5 construct: expressed in transfected cells; host or cells: HEK293
T5 sequence (O95977 1-384): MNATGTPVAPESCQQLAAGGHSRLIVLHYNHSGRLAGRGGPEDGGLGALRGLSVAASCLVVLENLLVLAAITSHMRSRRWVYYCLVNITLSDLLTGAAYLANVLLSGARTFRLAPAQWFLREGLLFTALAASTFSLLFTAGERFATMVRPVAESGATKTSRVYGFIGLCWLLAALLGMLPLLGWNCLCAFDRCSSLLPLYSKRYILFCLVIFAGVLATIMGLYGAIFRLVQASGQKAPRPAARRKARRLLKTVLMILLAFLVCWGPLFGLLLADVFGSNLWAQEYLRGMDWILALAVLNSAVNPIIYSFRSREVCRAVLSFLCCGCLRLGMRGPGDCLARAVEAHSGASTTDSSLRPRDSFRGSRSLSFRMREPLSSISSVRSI
Experimental: as §1

[6] = target: T6, S1P3 (Homo sapiens, UniProt Q99500); experiment: TGFα-shedding assay, S1P3; assay type: cell-based; conditions: for EC50: HEK293 cells, ligand 1 hour
T6 construct: expressed in transfected cells; host or cells: HEK293
T6 sequence (Q99500 whole entry, species assumed): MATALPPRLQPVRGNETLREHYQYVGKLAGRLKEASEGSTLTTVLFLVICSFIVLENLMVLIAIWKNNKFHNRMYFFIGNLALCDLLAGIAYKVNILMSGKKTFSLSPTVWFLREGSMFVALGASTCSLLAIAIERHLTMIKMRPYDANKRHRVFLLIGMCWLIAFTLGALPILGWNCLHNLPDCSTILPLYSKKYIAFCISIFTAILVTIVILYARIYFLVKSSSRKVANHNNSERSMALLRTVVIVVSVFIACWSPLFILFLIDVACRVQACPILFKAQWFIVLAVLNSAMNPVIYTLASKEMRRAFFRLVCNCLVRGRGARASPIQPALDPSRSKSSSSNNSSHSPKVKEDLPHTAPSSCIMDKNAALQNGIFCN
Experimental: as §1

[7] = target: T7, S1P3-EGFP (Homo sapiens, UniProt Q99500); experiment: Receptor internalization assay, S1P3-EGFP; assay type: cell-based; conditions: 1 μM ligand
T7 construct: expressed in transfected cells
T7 sequence (Q99500 whole entry): as the sequence (Q99500 whole entry, species assumed) above

[8] = target: T8, S1P1-EGFP (Homo sapiens, UniProt P21453); experiment: Receptor internalization assay, S1P1-EGFP; assay type: cell-based; conditions: 1 μM ligand
T8 construct: expressed in transfected cells
T8 sequence (P21453 whole entry): as the sequence (P21453 whole entry, species assumed) above

[9] = system: MDA-MB-231 breast cancer cells; experiment: Cell rounding assay in MDA-MB-231 cells (endogenous S1P2); assay type: cell-based; conditions: for cell rounding response: serum-starved MDA-MB-231 cells, S1P 1 μM
Experimental: Cell rounding was performed essentially as described. […] After 15 min, the cells were fixed and stained with fluorescein phalloidin and DAPI for cell morphology. The number of cells with retracted neurites and the number of total cells were counted in three separate fields for each sample, and the percentage of cells with retracted neurites was calculated.

[10] = system: NOX3 complex (Nox3, NoxO1, NoxA1); experiment: NOX3 activity assay (luminol) in transfected HEK293 cells; assay type: cell-based; conditions: HEK293, S1P 1 μM, 15 minutes
Experimental: NOX3 activity was determined as previously described. […] Indicated values were taken 15 minutes following stimulation.

[11] = system: C6 rat glioma cells; experiment: Viability assay (MTT) in C6 cells; assay type: cell-based; conditions: for EC50: vehicle
Experimental: Cell viability was determined by 3-(4,5-dimethylthiazol-2-yl)-2,5-diphenyltetrazolium bromide (MTT) assay as described. Briefly, C6 cells were seeded into 96-well plates at 20,000 cells/well, incubated overnight, serum-starved for 4 h, and treated for 72 hours with cisplatin in the presence of CYM-5478 or vehicle.

[12] = system: caspase 3/7 activity in C6 cells; experiment: Caspase-Glo 3/7 assay in C6 cells; assay type: cell-based, rat
Experimental: Cells were plated in clear-bottom, black-walled 96-well plates at ~50% confluence, incubated overnight, then treated overnight with cisplatin in the presence of vehicle or 10 μM CYM-5478. Caspase activation was evaluated by Caspase-Glo 3/7 Assay System (Promega Corporation) per manufacturer’s instructions.

[13] = system: C6 cells; experiment: Cell death assay (propidium iodide exclusion) in C6 cells; assay type: cell-based, rat
Experimental: Cell death was evaluated by propidium iodide exclusion assay. Cells were plated in 96-well plates at ~50% confluence, incubated overnight, then treated with cisplatin (67 μM) for 24 hours in the presence of vehicle or 10 μM CYM-5478. Cell were treated with Hoechst 33342 (1 mg/ml) and propidium iodide (0.3 mg/ml) for 20 minutes, washed with phosphate-buffered saline, then rapidly photographed with a Cytation 3 automated imager (Biotek Instruments, Inc.). % cell death reflects a ratio of propidium iodide-positive and Hoechst 33342-positive cells.

[14] = system: ROS in C6 cells; experiment: ROS assay (CellROX) in C6 cells; assay type: cell-based, rat; conditions: for effect on cisplatin-induced ROS: co-administered with cisplatin, CYM-5478 10 μM; for effect on CYM-5478-mediated attenuation of cisplatin-induced ROS: cisplatin + CYM-5478
Experimental: Cells were plated in clear-bottom, black-walled 96-well plates at ~50% confluence, incubated overnight, then treated overnight with cisplatin in the presence of the indicated compounds. All conditions were vehicle-controlled (0.1% DMSO). […] Cells were photographed with a 20X objective lens, 3 fields per well, 3 wells per condition. Quantification was performed using ImageJ software, but dividing the total integrated density of CellROX® labelling by the number of cells per Hoechst staining.

[15] = target: T1, S1P2; conditions: cited from earlier work
[16] = system: other S1P receptor subtypes; experiment: TGFα-shedding assay, other S1P receptor subtypes (summary statement); assay type: cell-based; conditions: subtypes other than S1P2
Experimental: as §1

T1 sequence (O95136 whole entry, species assumed): as the sequence (O95136 whole entry) above

Compound: CCCCCCCCCCCCC/C=C/[C@@H](O)[C@@H](N)COP(=O)(O)O [S1P, sphingosine 1-phosphate]
- Emax [1]: 100%
- EC50 [2]: 115 nM
- internalization of S1P2-EGFP [3]: largely internalized to cytoplasmic vesicles
- Emax [4]: 100%
- Emax [5]: 100%
- EC50 [5]: 175 nM
- Emax [6]: 100%
- EC50 [6]: 55.4 nM
- internalization of S1P3-EGFP [7]: largely internalized to cytoplasmic vesicles
- internalization of S1P1-EGFP [8]: largely internalized to cytoplasmic vesicles
- cell rounding response [9]: pronounced cytoskeletal rearrangement characterized by process retraction and cell rounding
- S1P-dependent reduction of NOX3 ROS, co-transfected S1P1 [10]: not observed
- S1P-dependent reduction of NOX3 ROS, co-transfected S1P3 [10]: not observed
- effect on NOX3 ROS generation, co-transfected S1P2 [10]: further attenuated

Compound: OO [H2O2, hydrogen peroxide]
- EC50 ([11]; C6 cells, read-out: EC50 of hydrogen peroxide, + vehicle): 1860 nM

Compound: N.N.[Cl][Pt][Cl] [Cisplatin, cis-Diammineplatinum(II) dichloride]
- caspase 3/7 activity ([12]; overnight): significant increase in caspase 3/7 activity
- increase in propidium iodide-positive cells ([13]; cisplatin 67 μM, 24 hours): > 3 fold
- EC50 ([11]; C6 cells, 72 hours, MTT, read-out: EC50 of cisplatin-mediated reduction in viability, + vehicle): 1340 nM
- ROS accumulation (CellROX fluorescence) ([14]; cisplatin 20 μM, 24 hours): increase in ROS

Compound: CCN(CC)CCCC(C)Nc1nc(C)cc(Nc2ccc3nc(C)cc(N)c3c2)n1 (centres unmarked) [NSC23766]
- effect on cisplatin-induced ROS [14]: phenocopied

Compound: c1ccc2c(c1)[I+]c1ccccc1-2 [DPI, diphenyleneiodonium]
- effect on cisplatin-induced ROS [14]: phenocopied

Compound: Cc1cc(C(=O)Cn2cc(C(F)(F)F)ccc2=O)c(C)n1Cc1ccccc1 [CYM-5478]
- EC50 ([1]; HEK293 cells, ligand 1 hour): 119 nM
- S1P2 Emax ([1]; relative to S1P): 99.5%
- EC50 [2]: 1690 nM
- S1P1 Emax ([2]; relative to S1P): 24.2%
- internalization of S1P2-EGFP [3]: induced the internalization of S1P2-EGFP
- EC50 ([15]; Scripps Research Institute Molecular Screening Center HTS, ref http://pubchem.ncbi.nlm.nih.gov/assay/assay.cgi?aid=872, read-out: EC50 in the original screen): 723 nM
- EC50 ([15]; read-out: EC50 in subsequent validation studies): 780 nM
- EC50 ([4]; HEK293 cells, ligand 1 hour): > 10000 nM
- EC50 [5]: > 10000 nM
- EC50 [6]: 1950 nM
- S1P3 Emax ([6]; relative to S1P): 20.8%
- effect on cisplatin-induced caspase 3/7 activity ([12]; co-administration of 10 μM CYM-5478): markedly attenuated
- effect on cisplatin-induced increase in propidium iodide-positive cells ([13]; co-administration of 10 μM CYM-5478 with cisplatin 67 μM, 24 hours): attenuated
- change in propidium iodide-positive cells, treatment alone ([13]; without cisplatin): no significant change
- increase in EC50 of cisplatin conferred by co-administration ([11]; C6 cells, 10 μM CYM-5478): 3 fold
- increase in viability in the presence of 10% fetal bovine serum ([11]; C6 cells, 10% fetal bovine serum (data not shown)): absent
- effect on EC50 of cisplatin in the presence of 1 mM N-acetylcysteine ([11]; C6 cells, vs vehicle-treated): no significant difference
- protection of C6 cells from exogenously administered ROS (hydrogen peroxide) ([11]; presence vs absence of CYM-5478): equally sensitive
- concentrations giving statistically significant, dose dependent increase in viability ([11]; serum-starved C6 cells, MTT): above 100 nM
- effect on cisplatin-induced ROS [14]: significantly attenuated
- cell rounding response [9]: identical rounding response
- efficacy against the other S1P receptor subtypes [16]: less than 25%
- lower potency against the other S1P receptor subtypes vs S1P2 [16]: 10 fold

Compound: C[C@@H](N)[C@H]1CC[C@H](C(=O)Nc2ccncc2)CC1 [Y-27632]
- effect on CYM-5478-mediated attenuation of cisplatin-induced ROS [14]: complete attenuation of CYM-5478 activity
- effect on cisplatin-induced ROS [14]: no effect on cisplatin-induced ROS

Compound: JTE-013
- effect on CYM-5478-mediated attenuation of cisplatin-induced ROS [14]: complete attenuation of CYM-5478 activity
- effect on cisplatin-induced ROS [14]: no effect on cisplatin-induced ROS
- effect of pre-treatment on CYM-5478-induced cell rounding ([9]; pre-treatment 15 minutes before CYM-5478): similarly abrogated
- effect of pre-treatment on S1P-induced cell rounding ([9]; pre-treatment 15 minutes before S1P (1 μM)): completely abrogated
